Reference: US20260097115A1 (priority 2023, published 2026)

Tests used:
Format in all cases: cell-based, human
[1] = test system: HLA-II complexes (HLA-DR, HLA-DP, HLA-DQ) of HEK293T/ATC cells
[2] = test system: HLA-II complexes (HLA-DR, HLA-DP, HLA-DQ) of A549/ATC cells
[3] = test system: HLA-II complexes of A549/ATC and HEK293T/ATC cells

Sequence	Unique HEK293T peptides in segment [1]	Unique A549 peptides in segment [2]	Unique peptides in segment [3]	Detection as HLA-II peptide by LC-MS/MS [1]
CSNLLLQYGSFCTQLNRALTGIAVEQDKNTQE [S:749-780]	10	0	10	–
MAGNGGDAALALLLLDRLNQLESKMSGKGQQQQGQTVT [N: 210-247]	0	21	21	–
ALHFLLFFRALPKS [ORF3a.iORF1: 28-41]	1	0	1	observed in the same fraction (fxn 3) in two biological replicates
SVASQSIIAYTMSLGAEN [S:686-703]	3	0	3	–
RIGMEVTPSGTWLTYTGAIKLDDKDPNEKDQVILLNKHIDAYKTEPP [N: 319-365]	17	36	44	–
ICASYQTQTNSPRRA [S:670-684]	1	0	1	–
TPTWRVYSTGSNVFQTRAG [S:630-648]	2	1	3	–
MDPKISEMHPALRLVDPQIQLAVTRMENA [ORF9b: 1-29]	8	0	8	–
VGPKVYPIILRLGSPLS [ORF9b: 37-53]	2	0	2	–
TDHSSSSDNIALLVQ [M: 208-222]	2	2	2	–
MDLFMRIFTIGTVTLKQGEIKDATPSDF [ORF3a: 1-28]	4	1	4	–
TEIYQAGSTPCNGVEG [S:470-485]	2	0	2	–
EPQIITTDNTFVSGN [S:1111-1125]	0	1	1	–
TGPEAGLPYGANKDG [N: 115-129]	0	1	1	–
MDGSIIQFPNTYLEGSVR [nsp4: 194-211]	5	0	5	–
TQQLIRAAEIRASANLA [S:1009-1025]	14	0	14	–
DGSEDNQTTTIQTIVE [nsp3: 174-189]	1	0	1	–
SPDAVTAYNGYLTSSSK [nsp3: 661-677]	1	0	1	–
NVPLHGTILTRPLLESELVIGAVILRGHLRIAGHHLGRCDIKDLPKEITVA [M: 121-171]	18	16	34	–
YIINLIIKNLSKS [ORF6: 31-43]	0	1	1	–
TVEKGIYQTSNERVQPTES [S:307-325]	3	3	4	–
SDNGPQNQRNAPRITE [N: 2-17]	0	1	1	–
KKKADETQALPQRQKKQQTVTLLPAADLDDESKQLQQSMSSADSTQA [N: 373-419]	69	5	69	–
INITRFQTLLALHRSYL [S: 233-249]	1	0	1	–
ATREASVYAWNRKRISN [S:344-360]	3	0	3	–
TQLPPAYTNSFTRGVYYPDKVERSSVLHSTQDLFLPFFS [S: 22-60]	0	13	13	–
AALQIPFAMQMAYRENGIG [S:892-910]	11	0	11	–
IAQFAPSASAFFG [N: 304-316]	0	1	1	–
DSFVIRGDEVRQIAPG [S:398-413]	1	0	1	–
